# In patent US20240024291A1, “Uses of Dihydroorotate Dehydrogenase Inhibitors” (University of Maryland, Baltimore, priority 2022, published 2024):
# Key:
# Format in all cases: cell-based, human
# [1] = test system: 08-387 glioblastoma neurosphere line; test: CellTiter-Glo in vitro proliferation assay; settings: for IC50: Homo sapiens
# Experimental: A Biospherix X3, hypoxic incubation system, was maintained at 37° C., 1% 02, 5% CO2, and 94% N2 (Biospherix, Ltd—Parish, NY) to conduct in vitro hypoxic experiments. Cells were plated, then incubated in normoxia overnight before transferring the culture dishes to hypoxia for the duration indicated in the main text.
# […] Cell Titer-Glo® Luminescent Cell Viability Assay (Promega, Madison, WI, USA) was performed 72 hours after treatment. Luminescence was determined using a Cytation 5 reader and Gen5 software package (BioTek, Winooski, VT, USA).
# The compound's efficacy was examined against a collection of genetically diverse patient-derived GSC lines in vitro. The IC50 profiles of compound 1 in the seven GSC lines tested were established using the CellTiter-Glo® reagent and calculated with GraphPad software.
# 08-387 neurosphere line = test: Western blot for cleaved PARP1; settings: 10 nM
# Experimental: (§1) Western Blots were performed using 25 µg of protein per sample loaded onto NuPAGE® Novex® 4-12% Bis-Tris protein gels and transferred onto nitrocellulose membranes that were then blocked with 5% BSA in PBS and 0.1% Tween (PBST). Primary antibody incubation was performed in 5% BSA in PBST at 4° C. overnight, and HRP-labeled secondary antibody incubation (1:5000) was performed for one hour at room temperature in 5% BSA in PBST.
# (§2) Antibodies used for western blotting were acquired from the following sources: Cleaved PARP (Asp214) (D64E10) XP® Rabbit mAb, Cell Signaling Technology Cat#5625, RRID:AB_10699459, 1:1000 for Western blots. Phospho-H2AX, Millipore Cat#RRID:AB_2755003, 1:1000 for Western blots, and 1:250 for immunofluorescence imaging. p-Tubulin, Millipore Cat #MAB5564, RRID:AB 11212768, 1:10,000 for Western blots. p44/42 MAPK (Erk1/2) (137F5) Rabbit mAb (Cell Signaling Technology Cat #4695, RRID:AB_390779) 1:1000 for Western blots; Phospho-p44/42 MAPK (Erk1/2) (Thr202/Tyr204) (Cell Signaling Technology Cat #9101, RRID:AB_331646) 1:1000 for Western blots; Akt Antibody (Cell Signaling Technology Cat #9272, RRID:AB_329827) 1:1000 for Western blots; Phospho-Akt (Ser473) Antibody (Cell Signaling Technology Cat #9271, RRID:AB 329825) 1:1000 for Western blots.
# (§3) Poly(ADP-ribose) polymerase 1 (PARP1) is a nuclear protein that is activated by binding to DNA lesions and catalyzes the poly(ADP-ribosyl)ation of various nuclear proteins, including PARP1 itself, to recruit the DNA repair machinery to DNA lesions (53, 54. When excessive DNA damage occurs, PARP1 is cleaved to generate an 89 kDa fragment shown to serve as a cytoplasmic PAR carrier to induce AIF-mediated apoptosis (55). Given the profound induction of DNA damage in compound 1-treated GBM neurospheres, the prevalence of the 89 kDa PARP1 fragment in control and 10 nM compound 1-treated cells was measured. Strikingly, a 9.7- and 56-fold increase in the level of cleaved PARP1 was found in 913 and 08-387 neurosphere lines, respectively, when cultured in normoxia. Similarly, a 9.9- and 71-fold increase was documented in the level of cleaved PARP1 in 913 and 08-387 neurosphere lines cultured in hypoxia (FIG. 6).
# 913 neurosphere line = test: Western blot for cleaved PARP1; settings: 10 nM
# Experimental: as §1, §2, §3
# [2] = test system: 913 glioblastoma neurosphere line; test: gH2AX foci immunofluorescence (DNA damage); settings: IC50 dose
# Experimental: (§4) The 913, 3691, 08-387, and 1079 glioblastoma neurosphere-derived cells (1×10^4) were treated with DMSO (control) or IC50 concentration of compound 1 and cultured in either normoxia or hypoxia for 48 hours. Cells were spun with a Milles Scientific Cyto-Tek Model 4325 cytocentrifuge slide centrifuge onto Superfrost slides (VWR-48311-703) at 1500 rpm for 5 minutes. Slides were rinsed briefly with Hanks Balanced Salt Solution (HBSS), fixed in 4% paraformaldehyde in PBS, and rinsed with HBSS twice to remove any residual fixative. Cells were permeabilized with PBS containing 0.1% Triton-X100 (PBST) for 15 minutes, then blocked for 1 hour with PBST with 5% BSA. The slides were incubated overnight at 4° C. with Phospho-H2AX antibody (see above), diluted 1:250 in PBST containing 5% BSA. Slides were rinsed three times with HBSS, then incubated for one hour at room temperature with donkey anti-mouse, Alexa488-conjugated, secondary antibody diluted 1:500 in PBST containing 5% BSA (see above). Cell nuclei were counterstained with DAPI (150 nM), and the slides were cover-slipped with Prolong antifade mounting media (Molecular Probes #P36961). Using a 40X objective, at least ten random high-power fields, per condition, were captured with a Nikon W-1 Spinning Disk confocal microscope through the University of Maryland Baltimore CIBR confocal facility. The number of yH2AX-positive foci per cell was counted using ImageJ (unige.ch/medecine/bioimaging/files/3714/1208/5964/CellCounting.pdf). Individual cells with ten or more foci were considered positive for significant DNA damage. At least 300 cells were analyzed in each sample.
# (§5) Reduced de novo pyrimidine synthesis mediated by MCT4-depletion promoted an accumulation of DNA damage (29). To test and quantify the magnitude of compound 1 effect on DNA damage, the four compound 1 responsive GBM neurosphere lines 913, 3691, 08-387, and 1079 were cultured in normoxia (21% oxygen) and hypoxia (1% oxygen) with a model-specific IC50 dose of compound 1 for 48 hours followed by immunocytochemical analysis of the DNA-damage marker g-H2AX. Table 1 is a summary of IC50 (nM or mM) values established for the seven glioblastoma neurosphere lines
# [3] = test system: 08-387 glioblastoma neurosphere line; test: gH2AX foci immunofluorescence (DNA damage); settings: IC50 dose
# Experimental: as §4, §5
# [4] = test system: 3691 glioblastoma neurosphere line; test: gH2AX foci immunofluorescence (DNA damage); settings: IC50 dose
# Experimental: as §4, §5
# [5] = test system: 1079 glioblastoma neurosphere line; test: gH2AX foci immunofluorescence (DNA damage); settings: IC50 dose
# Experimental: as §4, §5
smiles,measurement,setting,value
"CCn1c(CO)nn(-c2cc(O[C@@H](C)C(F)(F)F)c(C(=O)Nc3c(F)cccc3Cl)cc2F)c1=O [Compound 1, N-(2-chloro-6-fluorophenyl)-4-[4-ethyl-4,5-dihydro-3-(hydroxymethyl)-5-oxo-1H-1,2,4-triazol-1-yl]-5-fluoro-2-[(1S)-2,2,2-trifluoro-1-methylethoxy]-benzamide]",effect of uridine on growth inhibition,"[1]; 08-387, with 100 mM uridine, all concentrations tested",entirely rescued
same,IC50,"[1]; 08-387, uridine rescue experiment, compound 1 alone, normoxia and hypoxia",1 to 10 nM
same,IC50,"[1]; 72 h, 08-387, hypoxia",11.4 nM
same,IC50,"[1]; 72 h, 08-387, normoxia",4.7 nM
same,increase in the level of cleaved PARP1,"08-387 neurosphere line; 08-387, hypoxia",71 fold
same,increase in the level of cleaved PARP1,"08-387 neurosphere line; 08-387, normoxia",56 fold
same,increase in the level of cleaved PARP1,"913 neurosphere line; 913, hypoxia",9.9 fold
same,increase in the level of cleaved PARP1,"913 neurosphere line; 913, normoxia",9.7 fold
same,nuclei with multiple gH2AX-positive foci,"[2]; 913, hypoxia, 48 hours (control 2.3%)",23%
same,nuclei with multiple gH2AX-positive foci,"[2]; 913, normoxia, 48 hours (control 11%)",89%
same,nuclei with multiple gH2AX-positive foci,"[3]; 08-387, hypoxia, 48 hours (control 13.6%)",32%
same,nuclei with multiple gH2AX-positive foci,"[3]; 08-387, normoxia, 48 hours (control 11.6%)",30%
same,g-H2AX positivity,"[4]; 3691, hypoxia, 48 hours (control 11.3%)",44.2%
same,g-H2AX positivity,"[4]; 3691, normoxia, 48 hours (control 9%)",46%
same,g-H2AX positivity,"[5]; 1079, hypoxia, 48 hours (control 16.2%)",38.4%
same,g-H2AX positivity,"[5]; 1079, normoxia, 48 hours (control 14.8%)",32.4%
